Data as given in US6583306B1, “Methods of asymmetrically synthesizing enantiomers of Casodex, its derivatives and intermediates thereof” (priority 1999, dated 2003).
Where two headings read alike, the source gives them in different places.

Test system: testosterone response
Test: Biological data comparing pure enantiomers of Casodex (bicalutamide) with the racemic mixture: reduction of the testosterone response
Assay type: cell-based
Source text: The data for dihydrotestosterone are EC50 values. The rest of the data are IC50 values, since the assay is measuring the amount of compound it takes to reduce the testosterone response 50%.

[1] = Experiment 1, amount of compound it takes to reduce the testosterone response 50%, read-out: IC50, Experiment 1
[2] = Experiment 2, amount of compound it takes to reduce the testosterone response 50%, read-out: IC50, Experiment 2

## CC(O)(CS(=O)(=O)c1ccc(F)cc1)C(=O)Nc1ccc(C#N)c(C(F)(F)F)c1 [(R), N-(4cyano-3-trifluoromethyl-phenyl)-3-(4-fluoro-phenylsulfonyl)2-hydroxy-2-methyl-propionamide]
[1]
  IC50: 374 nM
[2]
  IC50: 359 nM

## CC(O)(CS(=O)(=O)c1ccc(F)cc1)C(=O)Nc1ccc(C#N)c(C(F)(F)F)c1 (racemic) [Racemate, N-[4-cyano-3-(trifluoromethyl)phenyl]-3-[(4-fluorophenyl)sulfonyl]-2-hydroxy-2-methyl-propanamide,(+−)]
read-out: IC50, Experiment 1
  IC50: 900 nM
read-out: IC50, Experiment 2
  IC50: 1000 nM

## C[C@]12CCC(=O)C[C@@H]1CC[C@@H]1[C@@H]2CC[C@]2(C)[C@@H](O)CC[C@@H]12 [DHT (Standard), dihydrotestosterone]
read-out: EC50, Experiment 1
  EC50: 0.18 nM
read-out: EC50, Experiment 2
  EC50: 0.18 nM

## CC(C)(O)C(=O)Nc1ccc([N+](=O)[O-])c(C(F)(F)F)c1 [OH Flut. (Standard)]
[1]
  IC50: 19 nM
[2]
  IC50: 41 nM

## C[C@@](O)(CS(=O)(=O)c1ccc(F)cc1)C(=O)Nc1ccc(C#N)c(C(F)(F)F)c1 [(S)]
[1]
  IC50: 7700 nM
[2]
  IC50: 11000 nM
